The values below come from patent US12446583B2, “Methods of pest control in soybean” (SYNGENTA CROP PROTECTION AG, priority 2012, dated 2025).

The assay deals with Euschistus heros. The assay can be described thus: Euschistus heros (Neotropical Brown Stink Bug) contact/feeding activity on sprayed soybean plants. Conditions: for mortality at 50 ppm: 120 h, read-out: control (mortality and growth effects). The format is in vivo. The protocol:
Euschistus heros (Neotropical Brown Stink Bug) (Contact/Feeding Activity)
2 week old soybean plants are sprayed in a turn table spray chamber with the diluted spray solutions. After drying, 2 soybean seeds are added and plants are infested with 10 N-2 nymphs of the neotropical brown stink bug Euschistus heros in plastic test boxes. Boxes are incubated in a climate chamber at 25° C. and 60% RH. Evaluation is done 5 days after infestation on mortality and growth effects.
Compounds are tested according to the above method.

Each structure is given as a SMILES string.

For the compound `CCN1OCC(NC(=O)c2ccc(C3=NOC(c4cc(Cl)c(Cl)c(Cl)c4)(C(F)(F)F)C3)cc2Cl)C1=O` (stereo not shown) [Compound A1], the mortality at 50 ppm is not below 80%.
Same read-out and setting: the result for `CCN1OCC(NC(=O)c2ccc(C3=NOC(c4cc(Cl)cc(Cl)c4)(C(F)(F)F)C3)cc2Br)C1=O` (stereo not shown) [Compound A2] reads not below 80%; that for `CCN1OCC(NC(=O)c2ccc(C3=NOC(c4cc(Cl)c(Cl)c(Cl)c4)(C(F)(F)F)C3)cc2Br)C1=O` (stereo not shown) [Compound A3], not below 80%.
Still for that read-out and setting: the result for `CCN1OCC(NC(=O)c2ccc(C3=NOC(c4cc(Cl)cc(Cl)c4)(C(F)(F)F)C3)cc2C(F)(F)F)C1=O` (stereo not shown) [Compound A4] reads not below 80%; that for `CCN1OCC(NC(=O)c2ccc(C3=NOC(c4cc(Cl)c(Cl)c(Cl)c4)(C(F)(F)F)C3)cc2C(F)(F)F)C1=O` (stereo not shown) [Compound A5], not below 80%.
On to `Cc1cc(C2=NOC(c3cc(Cl)cc(Cl)c3)(C(F)(F)F)C2)ccc1C(=O)NC1CON(C)C1=O` (stereo not shown) [Compound A15], for which the mortality at 50 ppm is not below 80%.
On the same count and under the same terms, in the case of `CCN1OCC(NC(=O)c2ccc(C3=NOC(c4cc(Cl)cc(Cl)c4)(C(F)(F)F)C3)cc2C)C1=O` (stereo not shown) [Compound A17] it was not below 80%.
For `Cc1cc(C2=NOC(c3cc(Cl)cc(Cl)c3)(C(F)(F)F)C2)ccc1C(=O)N[C@@H]1CON(CC(F)(F)F)C1=O` (stereo partly shown) [Compound of the invention], the Control/% (application rate 0.8 ppm) is listed as 15%, the Control/% (application rate 3 ppm) came out at 85% and the Control/% (application rate 12.5 ppm) was 100%.
For `Cc1cc(C2=NOC(c3cc(Cl)cc(Cl)c3)(C(F)(F)F)C2)ccc1C(=O)N[C@@H]1CON(Cc2ccccc2)C1=O` (stereo partly shown) [Reference compound, reference compound], in that order: 0%, 35% and 90%.
